From patent publication US20260138981A1, “DIHYDROFOLATE REDUCTASE INHIBITORS FOR ANTI-BIOTIC RESISTANT INFECTIONS” (THE TRUSTEES OF PRINCETON UNIVERSITY, priority 2022, published 2026)

How the values were obtained:
E. coli lptD4213 = test: Membrane potential and permeability, TO-PRO-3 and DiOC2(3) flow cytometry; format: cell-based; conditions: E. coli lptD4213, 2×MIC
Description: FIG. 5B provides flow cytometry of E. coli lptD4213 treated with 5% DMSO, 5 μM CCCP, or 2×MIC fluorofolin 0.04 μg/mL polymixin B, and 0.4 μg/mL trimethoprim and stained with TO-PRO-3 and DiOC2(3).
The ability of fluorofolin to permeabilize P. aeruginosa PA14 was examined. Specifically, flow cytometry of P. aeruginosa stained with TO-PRO-3 was used, treated the bacteria with 2×MIC, and analyzed membrane integrity. […] It was hypothesized that this decrease in membrane targeting might also decrease toxicity due to the disruption of eukaryotic membranes.
Overnight P. aeruginosa PA14 or E. coli lptD4213 cultures were diluted 1:100 and grown to mid exponential phase at 37° C. Cultures were diluted 1:10 into PBS and treated with antibiotics for 15 minutes. P. aeruginosa PA14 was stained with TO-PRO-3 (640 nm excitation, 670/30 nm emission) to measure cell membrane integrity. […] DiOC2(3) was evaluated as a ratio of green (488 nm excitation, 525/50 nm emission) to red (488 nm excitation, 610/20 nm emission) (Novo et al., 1999). […] 100,000 events were recorded for each data file. Gates for permeabilization were determined using Polymixin B (Sigma-Aldrich P1004) and untreated controls. Gates for depolarization were determined using CCCP as a positive control. Data was analyzed using FlowJo v10 software (FlowJo LLC, Ashland, OR).

WI-38 cells = test: Mammalian cell cytotoxicity (CyQUANT); format: cell-based; conditions: 72 hours
Description: FIG. 5D provides IC50 of fluorofolin against in vitro mammalian cell lines relative to the IC50 of IRS-16. HLF: human lung fibroblast, HK-2: human kidney epithelial, PBMC: peripheral blood mononuclear cell, WI-38: Embryonic lung tissue.
After 24 hours, DMSO or compounds were added in 3-fold dilutions and incubated for 72 hours. For PBMC, CellTiter-Glo Reagent was added in equal volume and incubated for 30 min after which luminescence was read. For other cell types, CyQUANT Detection Reagent was added in equal volume and incubated for 1 hour after which fluorescence was read with standard green filter set (508/527 nm ex). Cell toxicity was evaluated by Pharmaron, Inc. (Beijing, […]).

[1] = test system: PA14 mutants with disruptions in mexA, mexB and oprM; test: MIC against MexAB-OprM transposon mutants; format: cell-based, P. aeruginosa; conditions: oprM transposon mutants vs wildtype PA14
Description: FIG. 1I is the minimum inhibitory concentration of fluorofolin or trimethoprim against transposon mutants for each component of the MexAB-OprM efflux pump. MIC against wildtype PA14 was calculated to control for each drug stock. MIC values are representative of two independent replicates.
P. aeruginosa PA14 transposon mutants were generated by the Ausubel Lab (http://ausubellab.mgh.harvard.edu/cgi-bin/pa14/home.cgi). The MICs of fluorofolin and TMP against strains with disrupted MexA, MexB, and OprM were determined as above and compared to the parental strain. As transposon mutants in MexB were represented twice in this collection, the MIC was confirmed across both mutant strains.

[2] = Pharmacokinetic analysis after single oral dose; format: in vivo, mouse; conditions: single dose 200 mg/kg PO, CD-1 mice
Description: FIG. 2A quantifies plasma concentration of fluorofolin over time after single oral administration to neutropenic CD1 mice. Each line is representative of an individual mouse.
Pharmacokinetics determination: Care and handling of male CD-1 mice approximately 6-8 weeks old conformed to institutional animal care and use policies as carried out at Pharmaron, Inc. (Beijing, ROC).
Pharmacokinetic properties were determined after a single dose of 200 mg/kg fluorofolin given PO. Plasma samples were taken from three mice at times 0.083, 0.25, 0.5, 1, 2, 4, 8, and 24 hours and quantitative analysis was performed using LC/MS/MS. Half-life was determined from plasma concentration after fluorofolin levels reached pseudo-equilibrium (4 hours for mouse 1 and 2, and 2 hours for mouse 3). Pharmacokinetic values were estimated using a non-compartmental model generated from WinNonlin 6.1. Pharmacokinetic analysis was carried out by Pharmaron, Inc. (Beijing, ROC).

P. aeruginosa PA14 = test: Murine thigh infection model of PA14; format: in vivo, mouse; conditions: 24 hours
Description: FIG. 2C quantifies treatment of mice with fluorofolin (SC) with or without SMX 100 mg/kg (IP).
FIG. 2D characterizes Fluorofolin and SMX treatment of mice fed a diet of thymidine-supplemented chow during PA14 infection. Mice were treated 1 and 12 hours post infection (n=5 for each group). P values from Tukey's multiple comparisons test (P-values≤0.0001).
To investigate the ability of fluorofolin to clear a P. aeruginosa infection in vivo, a murine thigh infection model of PA14 was employed. The maximum tolerated dose of fluorofolin was determined to be 25 mg/kg administered subcutaneously (SC). […] We note that this dose of SMX was previously used to mimic clinically-relevant levels of SMX used for cotreatment with TMP in humans. Mice were inoculated with 5.33 log CFU of P. aeruginosa PA14 CFU of PA14 and treated SC with fluorofolin at 25 mg/kg at 1 and 12 hours post infection. Thighs were harvested 24 hours post infection to determine bacterial load.
It was also sought to support the feasibility of thymidine supplementation in vivo by testing the hypothesis that fluorofolin should remain active in the presence of thymidine supplementation. […]
Female 5-6-week-old CD-1 mice were made neutropenic through intraperitoneal (IP) cyclophosphamide treatment (Cytoxan) prior to this study. […] In vivo efficacy was evaluated by the University of North Texas Health Science Center (Fort Worth, Texas).

Nc1nc(N)c2c(ccc3c2ccn3Cc2ccnc(F)c2)n1 [fluorofolin]
membrane depolarization or permeabilization (E. coli lptD4213): does not cause membrane depolarization or permeabilization
increase in IC50 compared to IRS-16 (WI-38 cells): 58.5 fold
change of MIC in efflux pump mutants [1]: did not decrease their MIC against fluorofolin to the same extent
half-life [2]: 12.1 h
peak concentration (plasma) [2]: 4.0 µg/mL
growth of PA14 in thigh (bacterial load) (P. aeruginosa PA14; fluorofolin 25 mg/kg SC + SMX 100 mg/kg IP at 1 and 12 hours post infection, vs no treatment and SMX alone, P<0.0001): significantly inhibited the growth of PA14
P. aeruginosa load in thigh, thymidine-supplemented diet (P. aeruginosa PA14; fluorofolin and SMX, mice fed thymidine-supplemented chow, vs untreated mice): significant reduction
